The values that follow come from patent US20020061869A1, “Free insulin testosterone test” (priority 1998, published 2002).

For data set [1], the system named is insulin dependent diabetic patient. Put plainly: Example 2: intramuscular depo-testosterone enanthate in an insulin dependent diabetic person. As to conditions: 150 mg intramuscularly three times weekly. In kind it is in vivo, human. The method, then:
A. W. was a person who has been an insulin dependent diabetic for fifteen years. […] They were scheduled for amputation. They used 24 units of Humulin insulin in the morning and 16 units at night. Their fasting blood glucose was 334. Treated with 150 mg of depo-testosterone enanthate intramuscularly, three times weekly, they became euglycemic on less than 12 units daily; see FIG. 1. However, due to the infected heel ulcer, amputation proceeded.

Data set [2] deals with diabetic patient on oral hypoglycemic agents. Put plainly: Example 3: intramuscular depo-testosterone in a person on oral hypoglycemic agents. It counts as in vivo, human. The conditions noted are these: 250 mg intramuscularly three times weekly for four weeks. The method, then:
J. G. was a person on oral hypoglycemic agents for ten years. Present dosage was 20 mg/day, Micronase 7 (Upjohn). They presented with ulcerations in four areas of their left foot, no dorsal pedis pulsation, and was scheduled for amputation but refused. Fasting glucose was 244.

Data set [3] relates to subject (tissue glucose stores). Put plainly: Example 5: intramuscular testosterone enanthate, Hemoglobin A1C. As to conditions: 9.9 in May. In kind it is in vivo, human. The method, then:
Testosterone enanthate 300 mg was given to a subject intramuscularly twice weekly for four weeks, then continued with therapy of 300 mg every two weeks.

For data set [4], the target named is T1, sex hormone-binding globulin (Homo sapiens, UniProt P04278).
T1 sequence (P04278 30-402): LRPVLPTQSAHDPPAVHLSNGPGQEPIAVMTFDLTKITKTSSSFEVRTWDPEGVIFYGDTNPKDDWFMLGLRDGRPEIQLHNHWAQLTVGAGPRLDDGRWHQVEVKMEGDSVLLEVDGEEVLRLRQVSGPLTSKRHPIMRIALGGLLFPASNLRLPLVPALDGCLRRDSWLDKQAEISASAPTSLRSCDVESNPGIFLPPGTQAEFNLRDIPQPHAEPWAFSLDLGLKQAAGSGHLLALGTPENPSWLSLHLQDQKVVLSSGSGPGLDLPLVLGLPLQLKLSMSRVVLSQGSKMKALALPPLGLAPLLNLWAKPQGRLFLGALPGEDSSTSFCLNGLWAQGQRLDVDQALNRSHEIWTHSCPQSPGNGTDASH
The conditions noted are these: readily reversible at 37° C.; cited from earlier work.

The test system of data set [5] is patient with uncontrolled diabetes. Put plainly: Example 4: testosterone subcutaneous pellets in a person with uncontrolled diabetes. In kind it is in vivo, human. As to conditions: 250 to 900 mg subcutaneous pellets every six weeks over six months, before: 100 units of Humulin. Here is the method: G. S. was a person with uncontrolled diabetes for ten years. Seen intermittently for ulceration of the feet, they presented with a serum glucose of 550 while on 100 units of Humulin. They refused admission to the hospital.
Over the course of six months, […] received 250 to 900 mg of […] testosterone subcutaneous pellets every six (6) weeks. […] insulin requirements were reduced 35 units while […] serum glucose remained stable at 140 to 180 mg/dl; see FIG. 3.

The test system of data set [6] is men with cluster headaches. In words: Testosterone supplementation in men with cluster headaches and low Testosterone Ratio Test. It counts as in vivo, human. The conditions noted are these: two men; supplementation to therapeutic levels at the normal male maximum.
The test system of data set [7] is insulin dependent diabetes mellitus patient. In words: Example 1: intramuscular aqueous testosterone in an insulin dependent diabetic person with gangrene. In kind it is in vivo, human. Here is the method:
C. W. was a person with a fifteen-year history of insulin dependent diabetes mellitus. They were hospitalized with gangrene of the middle finger of their right hand and was scheduled for amputation. They had already had bilateral femoral-popliteal bypass surgery for vascular insufficiency of the lower extremities. Due to anorexia, they were given an intramuscular injection of 200 mg of aqueous testosterone. Their fasting glucose fell from 212 to 159.

For the next data set, the system named is rats. Also on record: dose or concentration left out as unconfirmed. As to conditions: female rats, high dose, cited from earlier work.
For data set [8] the following is noted: cited from earlier work.
A further data set has as its system menopausal women. As to conditions: cited from earlier work.

Take `CCCCCCC(=O)O[C@H]1CC[C@H]2[C@@H]3CCC4=CC(=O)CC[C@]4(C)[C@H]3CC[C@]12C` [Testosterone enanthate]: the insulin requirement daily result in [1] (before: 24 units morning and 16 units at night) is “less than 12 units”. The glycemic status result is listed as “euglycemic” in data set [1] (person, fasting blood glucose before 334) and “euglycemic” in [2] (person, fasting glucose before 244). The “use of oral hypoglycemic agents” value in [2] (before: Micronase 20 mg/day) is given as “discontinuing their oral agents”. Further, the “Hemoglobin A1C” value in [3] (August, 1998, 300 mg intramuscularly twice weekly for four weeks then every two weeks) was 7.2; in data set [3] (October, 1998, 300 mg intramuscularly twice weekly for four weeks then every two weeks) it was 5.5.

Turning to `C[C@]12CC[C@H]3[C@@H](CCC4=CC(=O)CC[C@@]43C)[C@@H]1CC[C@@H]2O` [testosterone], the “binding affinity K” value in [4] is “approximately 10^9 M^−1”. In [5], this molecule returned an insulin requirements reduced of 35 units. In addition, the cluster headaches/migraines entry in [6] is “complete absence of cluster headaches/migraines for two years”. Besides, the “healing of gangrenous finger” value in [7] (amputation made unnecessary) is “healed completely in two months”. In addition, the fasting glucose in data set [7] (person, after intramuscular injection of 200 mg, fell from 212) is 159. Also, in data set [7] (repeated dosing every other day for one week), the serum glucose outcome is reported as “normalization of their serum glucose”. In addition, the “insulin requirement (Humulin daily)” value in data set [7] (repeated dosing every other day for one week, decrease from 44 units) worked out at 24 units.

Consider `Cc1c(C)c2c(c(C)c1O)CCC(C)(COc1ccc(CC3SC(=O)NC3=O)cc1)O2` (stereo not drawn) [troglitazone], for which, in the data set on rats (daily for 104 weeks, dose associated with excessive mortality), the sarcomatous tumors entry is on record as “statistically significant increase in sarcomatous tumors”. Also, in the data set on rats, the “exposure relative to estimated human exposure of parent compound” value is on record as 47 fold. Moreover, the side effects entry in data set [8] (as reported to date) is “abnormal liver function tests, jaundice, drop in white blood cell count and drop in hemoglobin which may persist for two years”. Also, the “lowering of effective blood level of co-administered drugs” value in [8] (oral contraceptives, terfenadine, and choleslyramine) is on record as “up to 30%”.

On to estrogen, for which the “reduction of cardiovascular disease mortality” value with menopausal women was “fifty percent”.
